Experiment [1] addresses T1, human seritonin transporter (Homo sapiens, UniProt P31645).
T1 construct: host or cells: HEK-293
The experiment is described as follows: hSERT receptor binding ([125I]-RTI-55 radioligand binding). The following applies: membranes of HEK-293 cells transfected with human seritonin transporter, IC50 converted to Ki by Cheng-Prusoff, read-out: SERT (Ki). The text has this: (§1) The ability of the compounds of this invention to bind to the hNET and serotonin SERT receptor can be determined using conventional radiolig and receptor binding assays. The receptors can be heterologously expressed in cell lines and experiments conducted in membrane preparations from the cell lines using procedures outlined below. IC50 concentrations can be determined by nonlinear regression of concentration-dependent reduction in specific binding. The Cheng-Prussoff equation can be used to convert the IC50 to Ki concentrations.
Cell pastes of HEK-293 cells transfected with the human seritonin transporter were supplied by the Pfizer Ann Arbor Protein Expression and Production group. […] Aliquots of membranes (5 mg/ml protein) were stored in liquid nitrogen until used.
The reaction was incubated by gentle agitation for 90 min at room temperature and was terminated by filtration through Whatman GF/C filter plates using a Brandel 96-well plate harvester. […] Test compounds were run in duplicate, and specific binding was defined as the difference between binding in the presence and absence of […] citalopram.
(§2) Excel and GraphPad Prism software were used for data calculation and analysis. IC50 values were converted to Ki values using the Cheng-Prusoff equation.

Experiment [2] concerns the target T2, human norepinephrine transporter (Homo sapiens, UniProt P23975).
T2 construct: host or cells: HEK-293
The experiment is described as follows: hNET receptor binding ([125I]-RTI-55 radioligand binding). Conditions: membranes of HEK-293 cells transfected with human norepinephrine transporter, IC50 converted to Ki by Cheng-Prusoff.
From the text: as §1
Cell pastes of HEK-293 cells transfected with the human norepinephrine transporter were supplied by the Pfizer Ann Arbor Protein Expression and Production group. […] Aliquots of membranes (5 mg/ml protein) were stored in liquid nitrogen until used.
The reaction was incubated by gentle agitation for 90 min at room temperature and was terminated by filtration through Whatman GF/C filter plates using a Brandel 96-well plate harvester. […] Test compounds were run in duplicate, and specific binding was defined as the difference between binding in the presence and absence of 10 μM desipramine.
as §2

Like-named read-outs stand apart in the source and are kept apart here. Bounds are passed on as bounds.

Experimental findings from patent publication US7659394B2 (Pfizer Inc, priority 2004, dated 2010) are described below.

The term Ki denotes the equilibrium dissociation constant of an inhibitor or competing ligand from its target.

T2 sequence (P23975 whole entry): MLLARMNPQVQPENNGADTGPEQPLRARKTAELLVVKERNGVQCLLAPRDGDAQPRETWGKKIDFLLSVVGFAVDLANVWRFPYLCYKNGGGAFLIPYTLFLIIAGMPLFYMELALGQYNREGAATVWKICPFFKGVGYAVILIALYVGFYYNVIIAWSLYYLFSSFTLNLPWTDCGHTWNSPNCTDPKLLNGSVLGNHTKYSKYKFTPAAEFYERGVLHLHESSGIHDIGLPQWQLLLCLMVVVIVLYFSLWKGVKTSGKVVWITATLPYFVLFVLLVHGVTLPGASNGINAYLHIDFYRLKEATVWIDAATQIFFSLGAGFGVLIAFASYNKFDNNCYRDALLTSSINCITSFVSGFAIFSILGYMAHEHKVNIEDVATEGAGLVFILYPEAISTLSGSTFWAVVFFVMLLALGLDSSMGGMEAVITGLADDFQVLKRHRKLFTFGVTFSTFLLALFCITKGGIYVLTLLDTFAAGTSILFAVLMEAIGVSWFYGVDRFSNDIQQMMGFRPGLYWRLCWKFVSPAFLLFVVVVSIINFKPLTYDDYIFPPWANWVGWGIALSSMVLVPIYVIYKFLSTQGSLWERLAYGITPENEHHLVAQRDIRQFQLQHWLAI
T1 sequence (P31645 whole entry): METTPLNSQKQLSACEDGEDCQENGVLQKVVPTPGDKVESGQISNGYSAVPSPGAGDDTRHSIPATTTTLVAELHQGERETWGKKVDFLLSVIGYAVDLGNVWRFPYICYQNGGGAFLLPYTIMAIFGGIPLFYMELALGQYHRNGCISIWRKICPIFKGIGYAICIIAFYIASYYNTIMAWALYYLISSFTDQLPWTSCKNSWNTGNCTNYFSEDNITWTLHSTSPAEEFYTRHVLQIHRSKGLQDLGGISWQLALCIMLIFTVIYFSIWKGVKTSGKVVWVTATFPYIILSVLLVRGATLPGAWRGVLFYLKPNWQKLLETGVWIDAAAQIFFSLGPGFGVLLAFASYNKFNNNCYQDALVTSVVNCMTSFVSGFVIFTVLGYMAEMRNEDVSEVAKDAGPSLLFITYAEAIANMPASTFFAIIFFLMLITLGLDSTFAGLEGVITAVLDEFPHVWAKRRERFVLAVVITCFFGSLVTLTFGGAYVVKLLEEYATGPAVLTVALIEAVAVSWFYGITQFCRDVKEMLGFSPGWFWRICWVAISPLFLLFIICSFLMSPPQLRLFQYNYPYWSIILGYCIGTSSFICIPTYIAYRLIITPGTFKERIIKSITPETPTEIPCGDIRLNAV

With `c1ccc([C@H](Oc2ccccc2-c2ccncc2)[C@@H]2CNCCO2)cc1` [Example 10, (S)-2-[(S)-Phenyl-(2-pyridin-4-yl-phenoxy)-methyl]-morpholine], the Ki in experiment [1] was not below 10000 nM; in experiment [2] (read-out: hNET (Ki)), 689 nM.

`c1ccc([C@H](Oc2ccccc2C2CC2)[C@@H]2CNCCO2)cc1` [Example 11, (S)-2-[(S)-(2-Cyclopropyl-phenoxy)-phenyl-methyl]-morpholine]: the inhibition constant (Ki) in experiment [1] turned out to be 452 nM; in experiment [2] (read-out: hNET (Ki)), 1.8 nM.

Regarding `c1ccc([C@H](Oc2cccc3ccccc23)[C@@H]2CNCCO2)cc1` [Example 12, (S)-2-[(S)-(Naphthalen-1-yloxy)-phenyl-methyl]-morpholine], the inhibitory constant (Ki) is 6.4 nM in experiment [1] and 6.7 nM in experiment [2] (read-out: hNET (Ki)).

With `c1ccc([C@H](Oc2ccccc2-c2cccnc2)[C@@H]2CNCCO2)cc1` [Example 13, (S)-2-[(S)-Phenyl-(2-pyridin-3-yl-phenoxy)-methyl]-morpholine], the results for the inhibition constant Ki in experiment [1] and in experiment [2] (read-out: hNET (Ki)) were 4100 nM and 18 nM, respectively.

Take `c1ccc(Oc2ccccc2O[C@@H](c2ccccc2)[C@@H]2CNCCO2)cc1` [Example 14, (S)-2-[(S)-(2-Phenoxy-phenoxy)-phenyl-methyl]-morpholine]: the Ki in experiment [1] was not below 10000 nM; in experiment [2] (read-out: hNET (Ki)) it was 61 nM.

With `CCOC(=O)c1ccccc1O[C@@H](c1ccccc1)[C@@H]1CNCCO1` [Example 15, (2S,3S)-2-(Morpholin-2-yl-phenyl-methoxy)-benzoic acid ethyl ester], the Ki turned out to be 3770 nM in experiment [1] and 15 nM in experiment [2] (read-out: hNET (Ki)).

Take `Clc1ccc(-c2ccccc2O[C@@H](c2ccccc2)[C@@H]2CNCCO2)cc1` [Example 16, (S)-2-[((S)-4′-Chloro-biphenyl-2-yloxy)-phenyl-methyl]-morpholine]: the Ki came out at 4500 nM in experiment [1] and 99 nM in experiment [2] (read-out: hNET (Ki)).

Consider `Fc1ccccc1O[C@@H](c1ccccc1)[C@H]1CNCCO1` [Example 18, (R)-2-[(S)-(2-Fluoro-phenoxy)-phenyl-methyl]-morpholine], for which the Ki in experiment [1] was found to be 72 nM; in experiment [2] (read-out: hNET (Ki)) it was 133 nM.

As for `CCOc1ccccc1O[C@H](c1ccccn1)[C@@H]1CNCCO1` [Example 20, (S)-2-[(R)-(2-Ethoxy-phenoxy)-pyridin-2-yl-methyl]-morpholine], the Ki was not below 10000 nM in experiment [1] and 593 nM in experiment [2] (read-out: hNET (Ki)).

For `CCOc1ccccc1O[C@@H](c1ccccn1)[C@@H]1CNCCO1` [Example 21, (S)-2-[(S)-(2-Ethoxy-phenoxy)-pyridin-2-yl-methyl]-morpholine], the figures for the Ki in experiment [1] and in experiment [2] (read-out: hNET (Ki)) were 2500 nM and 6.8 nM, respectively.

Consider `N#Cc1ccccc1OC(c1cccnc1)[C@@H]1CNCCO1` (stereo partly drawn) [Example 24, (2S,3R)-2-(Morpholin-2-yl-pyridin-3-yl-methoxy)-benzonitrile], for which the Ki in experiment [1] stood at 7720 nM; in experiment [2] (read-out: hNET (Ki)), 210 nM.

Turning to `FC(F)(F)Oc1ccccc1O[C@@H](c1cccnc1)[C@H]1CNCCO1` [Example 26, (R)-2-[(S)-Pyridin-3-yl-(2-trifluoromethoxy-phenoxy)-methyl]-morpholine], the inhibition constant Ki in experiment [1] came to 2440 nM; in experiment [2] (read-out: hNET (Ki)), 359 nM.

In the case of `Fc1ccc(O[C@H](c2ccccn2)[C@H]2CNCCO2)c(F)c1` [Example 27], the values for the inhibitory constant (Ki) in experiment [1] and in experiment [2] (read-out: hNET (Ki)) were 412 nM and 7900 nM, respectively.

Consider `Fc1ccc(O[C@@H](c2ccccn2)[C@H]2CNCCO2)c(F)c1` [Example 28], for which the inhibitory constant (Ki) in experiment [1] was 1410 nM; in experiment [2] (read-out: hNET (Ki)) it was 8410 nM.

Turning to `[O-][n+]1ccccc1O[C@@H](c1ccccc1)[C@@H]1CNCCO1` [Example 29, (S)-2-[((S)-1-Oxy-pyridin-2-yloxy)-phenyl-methyl]-morpholine], the results for the Ki in experiment [1] and in experiment [2] (read-out: hNET (Ki)) were not below 10000 nM and 154 nM, respectively.

For the compound `Clc1ccccc1-c1ccccc1O[C@@H](c1ccccc1)[C@@H]1CNCCO1` [Example 30, (S)-2-[(S)-(2′-Chloro-biphenyl-2-yloxy)-phenyl-methyl]-morpholine], the figures for the inhibitory constant (Ki) in experiment [1] and in experiment [2] (read-out: hNET (Ki)) were not below 10000 nM and 41 nM, respectively.

Regarding `Fc1ccc(Oc2ncccc2OC[C@@H]2CNCCO2)cc1` [Example 32, (S)-2-[2-(4-Fluoro-phenoxy)-pyridin-3-yloxymethyl]-morpholine], the inhibition constant (Ki) is not below 10000 nM in experiment [1] and 36 nM in experiment [2] (read-out: hNET (Ki)).

With `Fc1ccc(-c2ncccc2O[C@@H](c2ccccc2)[C@@H]2CNCCO2)cc1` [Example 33, (S)-2-{(S)-[2-(4-Fluoro-phenyl)-pyridin-3-yloxy]-phenyl-methyl}-morpholine], the inhibitory constant (Ki) in experiment [1] was found to be 2410 nM; in experiment [2] (read-out: hNET (Ki)), 22 nM.

Turning to `Fc1ccc([C@H](Oc2ccccc2F)[C@H]2CNCCO2)cc1` [Example 34, (R)-2-[(S)-(2-Fluoro-phenoxy)-(4-fluoro-phenyl)-methyl]-morpholine], the inhibition constant Ki in experiment [1] amounted to 184 nM; in experiment [2] (read-out: hNET (Ki)), 141 nM.

As for `CCOc1ccccc1OC(c1ccc(F)cc1)[C@H]1CNCCO1` (stereo partly shown) [Example 35], the results for the inhibition constant Ki in experiment [1] and in experiment [2] (read-out: hNET (Ki)) were 605 nM and 11 nM, respectively.

`Fc1cccc(F)c1O[C@@H](c1ccccc1)[C@@H]1CNCCO1` [Example 36, (S)-2-[(S)-(2,6-Difluoro-phenoxy)-phenyl-methyl]-morpholine]: the inhibition constant (Ki) in experiment [1] came to 471 nM; in experiment [2] (read-out: hNET (Ki)) it was 3.7 nM.

For `CCOc1ccccc1OC(CC1CCCCC1)[C@@H]1CNCCO1` (stereo partly drawn) [Example 37, (S)-2-[(S)-2-Cyclohexyl-1-(2-ethoxy-phenoxy)-ethyl]-morpholine and (2S,3-R)-2-[2-Cyclohexyl-1-(2-ethoxy-phenoxy)-ethyl]-morpholine], the Ki came out at 163 nM in experiment [1] and 12 nM in experiment [2] (read-out: hNET (Ki)).

`CCOc1ccccc1O[C@@H](CC(C)C)[C@@H]1CNCCO1` [Example 38, (S)-2-[(S)-1-(2-Ethoxy-phenoxy)-3-methyl-butyl]-morpholine]: the inhibition constant (Ki) was determined as 4100 nM in experiment [1] and 517 nM in experiment [2] (read-out: hNET (Ki)).

Regarding `C=CCc1ccccc1O[C@@H](c1ccccc1)[C@@H]1CNCCO1` [Example 39, (S)-2-[(S)-(2-Allyl-phenoxy)-phenyl-methyl]-morpholine], the results for the Ki in experiment [1] and in experiment [2] (read-out: hNET (Ki)) were 475 nM and 3.7 nM, respectively.

In the case of `c1ccc([C@H](Oc2cccnc2)[C@@H]2CNCCO2)cc1` [Example 40, (S)-2-[(S)-Phenyl-(pyridin-3-yloxy)-methyl]-morpholine], the results for the Ki in experiment [1] and in experiment [2] (read-out: hNET (Ki)) were 828 nM and 317 nM, respectively.

Turning to `Brc1ncccc1O[C@@H](c1ccccc1)[C@@H]1CNCCO1` [Example 41, (S)-2-[(S)-(2-Bromo-pyridin-3-yloxy)-phenyl-methyl]-morpholine], the inhibition constant (Ki) in experiment [1] and in experiment [2] (read-out: hNET (Ki)) was 17 nM throughout.

Turning to `Cc1ccc(-c2ncccc2O[C@@H](c2ccccc2)[C@@H]2CNCCO2)cc1` [Example 42, (S)-2-[(S)-Phenyl-(2-p-tolyl-pyridin-3-yloxy)-methyl]-morpholine], the inhibitory constant (Ki) in experiment [1] came out at 4940 nM; in experiment [2] (read-out: hNET (Ki)) it was 68 nM.

Turning to `CC(C)c1ccccc1O[C@@H](c1ccccc1)[C@@H]1CNCCO1` [Example 44, (S)-2-[(S)-(2-Isopropyl-phenoxy)-phenyl-methyl]-morpholine], the Ki in experiment [1] was 1360 nM; in experiment [2] (read-out: hNET (Ki)), 5.3 nM.

`CC(C)Oc1ccccc1O[C@@H](c1ccccc1)[C@@H]1CNCCO1` [Example 46, (S)-2-[(S)-(2-Isopropoxy-phenoxy)-phenyl-methyl]-morpholine]: the Ki in experiment [1] is 5630 nM; in experiment [2] (read-out: hNET (Ki)), 6.5 nM.

For the compound `Fc1ccc([C@H](Oc2ccccc2Br)[C@H]2CNCCO2)cc1` [Example 47, (R)-2-[(S)-(2-Bromo-phenoxy)-(4-fluoro-phenyl)-methyl]-morpholine], the inhibition constant (Ki) in experiment [1] is 52 nM; in experiment [2] (read-out: hNET (Ki)) it was 8.4 nM.

On to `c1ccc([C@H](Oc2ccc3occc3c2)[C@@H]2CNCCO2)cc1` [Example 48, (S)-2-[(S)-(Benzofuran-5-yloxy)-phenyl-methyl]-morpholine], for which the inhibition constant Ki in experiment [1] worked out at 10 nM; in experiment [2] (read-out: hNET (Ki)), 31 nM.

For `Cc1ccccc1O[C@@H](c1ccccc1)[C@@H]1CNCCO1` [Example 49, (S)-2-((S)-Phenyl-o-tolyloxy-methyl)-morpholine], the results for the inhibitory constant (Ki) in experiment [1] and in experiment [2] (read-out: hNET (Ki)) were 729 nM and 8.9 nM, respectively.

Turning to `CCOc1ccccc1O[C@@H](C1CCCCC1)[C@@H]1CNCCO1` [Example 51, (S)-2-[(S)-Cyclohexyl-(2-ethoxy-phenoxy)-methyl]-morpholine], the inhibition constant (Ki) is not below 10000 nM in experiment [1] and 16 nM in experiment [2] (read-out: hNET (Ki)).

Turning to `c1ccc([C@H](Oc2ccccc2N2CCNCC2)[C@@H]2CNCCO2)cc1` [Example 52, (S)-2-[(S)-Phenyl-(2-piperazin-1-yl-phenoxy)-methyl]-morpholine], the Ki in experiment [1] was found to be 1350 nM; in experiment [2] (hNET (Ki)), 1620 nM.

Turning to `CSc1ccccc1O[C@@H](c1ccccc1)[C@@H]1CNCCO1` [Example 53, (S)-2-[(S)-(2-Methylsulfanyl-phenoxy)-phenyl-methyl]-morpholine], the inhibition constant (Ki) in experiment [1] came out at 259 nM; in experiment [2] (read-out: hNET (Ki)) it was 5.9 nM.
